Experimental data reported in ChEMBL document CHEMBL3045770, “Design and synthesis of some thieno[2,3-c]pyridazine derivatives of expected anticancer activity” (2013).

Columns and labels:
Format in all cases: functional
HL-60(TB) = test: Cytotoxicity against Homo sapiens (human) HL-60(TB) assessed as cell growth at 10 uM after 48 hr by SRB assay relative to control; conditions: HL-60, 48 h, read-out: Activity
NCI-H460 = test: Cytotoxicity against Homo sapiens (human) NCI-H460 assessed as cell growth at 10 uM after 48 hr by SRB assay relative to control; conditions: NCI-H460, 48 h, read-out: Activity
MCF7 = test: Cytotoxicity against Homo sapiens (human) MCF7 assessed as cell growth at 10 uM after 48 hr by SRB assay relative to control; conditions: MCF7, 48 h, read-out: Activity
DU-145 = test: Cytotoxicity against Homo sapiens (human) DU145 assessed as cell growth at 10 uM after 48 hr by SRB assay relative to control; conditions: DU-145, 48 h, read-out: Activity
[1] = Cytotoxicity against Homo sapiens (human) NCI-ADR-RES assessed as cell growth at 10 uM after 48 hr by SRB assay relative to control; conditions: read-out: Activity
NCI-H23 = test: Cytotoxicity against Homo sapiens (human) NCI-H23 assessed as cell growth at 10 uM after 48 hr by SRB assay relative to control; conditions: NCI-H23, 48 h, read-out: Activity
OVCAR-3 = test: Cytotoxicity against Homo sapiens (human) OVCAR3 assessed as cell growth at 10 uM after 48 hr by SRB assay relative to control; conditions: OVCAR-3, 48 h, read-out: Activity
SNB-19 = test: Cytotoxicity against Homo sapiens (human) SNB19 assessed as cell growth at 10 uM after 48 hr by SRB assay relative to control; conditions: SNB-19, 48 h, read-out: Activity
M14 = test: Cytotoxicity against Homo sapiens (human) M14 assessed as cell growth at 10 uM after 48 hr by SRB assay relative to control; conditions: M14, 48 h, read-out: Activity
EKVX = test: Cytotoxicity against Homo sapiens (human) EKVX assessed as cell growth at 10 uM after 48 hr by SRB assay relative to control; conditions: read-out: Activity
KM12 = test: Cytotoxicity against Homo sapiens (human) KM12 assessed as cell growth at 10 uM after 48 hr by SRB assay relative to control; conditions: KM12, 48 h, read-out: Activity
Hs-578T = test: Cytotoxicity against Homo sapiens (human) Hs 578T assessed as cell growth at 10 uM after 48 hr by SRB assay relative to control; conditions: read-out: Activity
LOX IMVI = test: Cytotoxicity against Homo sapiens (human) LOXIMVI assessed as cell growth at 10 uM after 48 hr by SRB assay relative to control; conditions: read-out: Activity
HOP-62 = test: Cytotoxicity against Homo sapiens (human) HOP62 assessed as cell growth at 10 uM after 48 hr by SRB assay relative to control; conditions: HOP-62, 48 h, read-out: Activity
SK-MEL-5 = test: Cytotoxicity against Homo sapiens (human) SK-MEL-5 assessed as cell growth at 10 uM after 48 hr by SRB assay relative to control; conditions: SK-MEL-5, 48 h, read-out: Activity
UACC-62 = test: Cytotoxicity against Homo sapiens (human) UACC62 assessed as cell growth at 10 uM after 48 hr by SRB assay relative to control; conditions: UACC-62, 48 h, read-out: Activity
MDA-MB-435 = test: Cytotoxicity against Homo sapiens (human) MDA-MB-435 assessed as cell growth at 10 uM after 48 hr by SRB assay relative to control; conditions: MDA-MB-435, 48 h, read-out: Activity
NCI-H522 = test: Cytotoxicity against Homo sapiens (human) NCI-H522 assessed as cell growth at 10 uM after 48 hr by SRB assay relative to control; conditions: NCI-H522, 48 h, read-out: Activity
NCI-H226 = test: Cytotoxicity against Homo sapiens (human) NCI-H226 assessed as cell growth at 10 uM after 48 hr by SRB assay relative to control; conditions: NCI-H226, 48 h, read-out: Activity
OVCAR-5 = test: Cytotoxicity against Homo sapiens (human) OVCAR5 assessed as cell growth at 10 uM after 48 hr by SRB assay relative to control; conditions: OVCAR-5, 48 h, read-out: Activity
786-0 = test: Cytotoxicity against Homo sapiens (human) 786-0 assessed as cell growth at 10 uM after 48 hr by SRB assay relative to control; conditions: 786-0, 48 h, read-out: Activity
SK-MEL-28 = test: Cytotoxicity against Homo sapiens (human) SK-MEL-28 assessed as cell growth at 10 uM after 48 hr by SRB assay relative to control; conditions: SK-MEL-28, 48 h, read-out: Activity
MOLT-4 = test: Cytotoxicity against Homo sapiens (human) MOLT4 assessed as cell growth at 10 uM after 48 hr by SRB assay relative to control; conditions: MOLT-4, 48 h, read-out: Activity
SN12C = test: Cytotoxicity against Homo sapiens (human) SN12C assessed as cell growth at 10 uM after 48 hr by SRB assay relative to control; conditions: read-out: Activity
HCC 2998 = test: Cytotoxicity against Homo sapiens (human) HCC2998 assessed as cell growth at 10 uM after 48 hr by SRB assay relative to control; conditions: HCC 2998, 48 h, read-out: Activity
CAKI-1 = test: Cytotoxicity against Homo sapiens (human) Caki1 assessed as cell growth at 10 uM after 48 hr by SRB assay relative to control; conditions: CAKI-1, 48 h, read-out: Activity
CCRF-CEM = test: Cytotoxicity against Homo sapiens (human) CCRF-CEM assessed as cell growth at 10 uM after 48 hr by SRB assay relative to control; conditions: read-out: Activity
BT-549 = test: Cytotoxicity against Homo sapiens (human) BT549 assessed as cell growth at 10 uM after 48 hr by SRB assay relative to control; conditions: BT-549, 48 h, read-out: Activity
SK-OV-3 = test: Cytotoxicity against Homo sapiens (human) SKOV3 assessed as cell growth at 10 uM after 48 hr by SRB assay relative to control; conditions: SK-OV-3, 48 h, read-out: Activity
HCT-116 = test: Cytotoxicity against Homo sapiens (human) HCT116 assessed as cell growth at 10 uM after 48 hr by SRB assay relative to control; conditions: HCT-116, 48 h, read-out: Activity
SF-295 = test: Cytotoxicity against Homo sapiens (human) SF295 assessed as cell growth at 10 uM after 48 hr by SRB assay relative to control; conditions: SF-295, 48 h, read-out: Activity
HT-29 = test: Cytotoxicity against Homo sapiens (human) HT-29 assessed as cell growth at 10 uM after 48 hr by SRB assay relative to control; conditions: HT-29, 48 h, read-out: Activity
A549 = test: Cytotoxicity against Homo sapiens (human) A549 assessed as cell growth at 10 uM after 48 hr by SRB assay relative to control; conditions: A549, 48 h, read-out: Activity

| SMILES | growth at 10 µM (HL-60(TB)) [%] | growth at 10 µM (NCI-H460) [%] | growth at 10 µM (DU-145) [%] | growth at 10 µM (OVCAR-3) [%] | growth at 10 µM (SNB-19) [%] | growth at 10 µM (M14) [%] | growth at 10 µM (EKVX) [%] | growth at 10 µM (KM12) [%] | growth at 10 µM (Hs-578T) [%] | growth at 10 µM (HOP-62) [%] | growth at 10 µM (SK-MEL-5) [%] | growth at 10 µM (UACC-62) [%] | growth at 10 µM (MDA-MB-435) [%] | growth at 10 µM (NCI-H522) [%] | growth at 10 µM (NCI-H226) [%] | growth at 10 µM (OVCAR-5) [%] | growth at 10 µM (786-0) [%] | growth at 10 µM (SK-MEL-28) [%] | growth at 10 µM (MOLT-4) [%] | growth at 10 µM (SN12C) [%] | also measured |
| --- | --- | --- | --- | --- | --- | --- | --- | --- | --- | --- | --- | --- | --- | --- | --- | --- | --- | --- | --- | --- | --- |
| Oc1c(-c2nnc(-c3ccccc3)o2)sc2nnc(-c3ccccc3)c(-c3ccccc3)c12 | 83.2 | 39.8 | 106 | 72.4 | 57.2 | 69.6 | 94.1 | 72.3 | 97 | 73.7 | 71.2 | 51.1 | 78.4 | 97.2 | 85 | 106 | 79.9 | 85.2 | 47.9 | 61.4 | growth at 10 µM (MCF7): 58%; growth at 10 µM [1]: 18.8%; growth at 10 µM (NCI-H23): 90.4%; growth at 10 µM (LOX IMVI): 65.7%; growth at 10 µM (HCC 2998): 70.4%; growth at 10 µM (CAKI-1): 29.1%; growth at 10 µM (CCRF-CEM): 47.7%; growth at 10 µM (BT-549): 74.9%; growth at 10 µM (SK-OV-3): 83%; growth at 10 µM (HCT-116): 47.4%; growth at 10 µM (SF-295): 42.9%; growth at 10 µM (HT-29): 103% |
| Oc1c(-c2n[nH]c(=S)o2)sc2nnc(-c3ccccc3)c(-c3ccccc3)c12 | 101 | 116 | 112 | 115 | 103 | 99.5 | 102 | 119 | 121 | 99.7 | 94.7 | 94.3 | 93.6 | 102 | 91.5 | 102 | 108 | 102 | 91 | 94 | growth at 10 µM (MCF7): 92%; growth at 10 µM (A549): 107%; growth at 10 µM (CAKI-1): 93.3%; growth at 10 µM (CCRF-CEM): 96.1%; growth at 10 µM (BT-549): 99.5%; growth at 10 µM (SK-OV-3): 96.4%; growth at 10 µM (HCT-116): 103%; growth at 10 µM (SF-295): 112%; growth at 10 µM (HT-29): 114% |
| CC(=O)Oc1c(C2=NN(C(C)=O)C(c3ccc(F)cc3)O2)sc2nnc(-c3ccccc3)c(-c3ccccc3)c12 (configuration not stated) | 83.8 | 101 | 114 | 96.3 | 82.6 | 102 | 113 | 81.7 | 120 | 121 | 88.2 | 57.5 | 79.6 | 80.4 | 92.4 | 95.3 | 94.7 | 82.1 | 55.1 | 80.2 | growth at 10 µM (MCF7): 73.7%; growth at 10 µM [1]: 85.3%; growth at 10 µM (NCI-H23): 103%; growth at 10 µM (LOX IMVI): 99%; growth at 10 µM (HCC 2998): 82.8%; growth at 10 µM (CCRF-CEM): 39.1%; growth at 10 µM (BT-549): 65.3%; growth at 10 µM (SK-OV-3): 97.6%; growth at 10 µM (HCT-116): 80.5%; growth at 10 µM (HT-29): 102% |
| CCOC(=O)c1c(Nc2ccc(S(=O)(=O)Nc3nccs3)cc2)nnc(-c2ccccc2)c1-c1ccccc1 | 104 | 111 | 114 | 120 | 108 | 104 | 102 | 114 | 118 | 117 | 97.6 | 92.9 | 119 | 103 | 102 | 117 | 109 | 113 | 79.3 | 94.8 | growth at 10 µM (A549): 110%; growth at 10 µM (CAKI-1): 107%; growth at 10 µM (CCRF-CEM): 91.3%; growth at 10 µM (BT-549): 98.9%; growth at 10 µM (SK-OV-3): 106%; growth at 10 µM (HCT-116): 98.6%; growth at 10 µM (SF-295): 101%; growth at 10 µM (HT-29): 116% |
| Oc1c(-c2nnc(SCc3ccccc3)o2)sc2nnc(-c3ccccc3)c(-c3ccccc3)c12 | 69.8 | 111 | 112 | 126 | 103 | 108 | 122 | 107 | 135 | 105 | 99.7 | 78.6 | 99.4 | 88.5 | 101 | 98.8 | 105 | 98.9 | 86 | 99.5 | growth at 10 µM (MCF7): 82.2%; growth at 10 µM [1]: 93.5%; growth at 10 µM (NCI-H23): 106%; growth at 10 µM (LOX IMVI): 84%; growth at 10 µM (HCC 2998): 96.5%; growth at 10 µM (CAKI-1): 114%; growth at 10 µM (CCRF-CEM): 66.8%; growth at 10 µM (BT-549): 107%; growth at 10 µM (SK-OV-3): 100%; growth at 10 µM (HCT-116): 83.3%; growth at 10 µM (HT-29): 89.8% |
| CNc1nnc(-c2sc3nnc(-c4ccccc4)c(-c4ccccc4)c3c2O)s1 | 107 | 106 | 135 | 116 | 105 | 107 | 112 | 126 | 109 | 115 | 104 | 97.5 | 103 | 111 | 106 | 96.5 | 108 | 111 | 93.3 | 94.2 | growth at 10 µM (MCF7): 88.7%; growth at 10 µM [1]: 105%; growth at 10 µM (NCI-H23): 115%; growth at 10 µM (LOX IMVI): 103%; growth at 10 µM (HCC 2998): 98.4%; growth at 10 µM (CAKI-1): 72%; growth at 10 µM (CCRF-CEM): 110%; growth at 10 µM (BT-549): 101%; growth at 10 µM (SK-OV-3): 97.7%; growth at 10 µM (HCT-116): 102%; growth at 10 µM (SF-295): 91.7%; growth at 10 µM (HT-29): 102% |
